Laboratory results as given in patent publication US20230203558A1, “[…] FOR USE IN A METHOD OF DIAGNOSIS OF VIRAL INFECTION, KIT AND SYSTEM” (Original G B.V., priority 2020, published 2023).
“And” between values parts separate entries of the source, which are not always exact repeats. Identical values can stand only once. Where no end group is shown, it is not given here.

Columns and labels:
[1] = molecular target: T1, SARS-CoV-2 main protease (Severe acute respiratory syndrome coronavirus 2, UniProt P0DTD1); conditions: 0.1 mg/mL peptide; for Cleavage of peptide (site) by SARS-CoV-2 main protease: protease 10 μM, RP-HPLC-MS
Protocol: Mass spectra were acquired on a Agilent Technologies 6530 Accurate Mass Q-TOF LC/MS with an Agilent Infinity 1260/1290 HPLC. RP-HPLC was carried out using a RP-aqueous 030 analytical column, 5 uM, 150×2.0 mm [Phenomenex]. The mobile phase was A) 10 mM ammonium formate/2% v/v MeCN, pH 6.2 and B) 10 mM ammonium formate/90% v/v MeCN, pH 6.2.
The gradient used was 0.2 mL-min, 25 minutes.
0.1 mg/mL solution of each peptide in Table 3 was incubated with SARS-CoV-2 main protease (at 10 μM).

[2] = molecular target: T1, SARS-CoV-2 main protease
[3] = tested on: elastase; experiment: Relative activity (NIR fluorescence) of quenched peptides with control protease elastase; assay type: biochemical
[4] = tested on: saliva proteases; experiment: Cross reactivity to saliva proteases; assay type: biochemical; set-up: key: −: Not observed; +: observed
[5] = tested on: Mycobacterium tuberculosis
[6] = tested on: Rhinovirus; experiment: Clinical sample, Rhinovirus positive, relative activity on DeNIRO; conditions: peptide 20 μM
[7] = tested on: SARS-CoV-2; experiment: Clinical samples PCR-characterized for SARS-CoV-2, relative activity on DeNIRO; conditions: peptide 20 μM; for Relative activity class, SARS-CoV-2 positive (swab): room temperature, 0-60 minutes
[8] = tested on: SARS-CoV-19 virus

| Substance | Cleavage fragment ([1]; SARS-CoV-2 main protease 10 μM, 4 hours) | Cleavage of peptide (site) by SARS-CoV-2 main protease [1] | Ratio for SARS-CoV-2 main protease to elastase [2] | Relative activity, SARS-CoV-2 main protease 0.2 μM ([2]; pH 7.3) | Relative activity, Elastase 0.2 μM ([3]; peptide concentration 5 μM) | Relative activity, Elastase 0.2 μM ([3]; peptide concentration 20 μM) | Cross reactivity to saliva proteases [4] | Relative activity class, Mycobacterium tuberculosis positive [5] | Relative activity class, Rhinovirus positive [6] | Relative activity class, SARS-CoV-2 negative (saliva) [7] | Relative activity class, SARS-CoV-2 negative (swab) [7] | Relative activity class, SARS-CoV-2 positive (saliva) [7] | Relative activity class, SARS-CoV-2 positive (swab) [7] | increase in RFU [8] |
| --- | --- | --- | --- | --- | --- | --- | --- | --- | --- | --- | --- | --- | --- | --- |
| Cy7-Ahx-AAFAA-K(QC1)-CONH2 [Peptide 3] | NONE | No cleavage was observed | 0.15 | 0.4 and 0.6 | 2.2 | 87.1 |  |  |  |  |  |  |  |  |
| Cy7-Ahx-[PEG1]-HQS[PEG1]K(QC1)-CONH2 [Peptide 2] |  | between Q-S | 54 |  | 0.1 | 0.9 | − | − (key: A relative activity of >10% indicates the presence of SARS-CoV-2 (+); a relative activity of <10% indicates absence of SARS-CoV-2 (−)) | − (a relative activity of <10% indicates absence of SARS-CoV-2 (−)) | − (a relative activity of <10% indicates absence of SARS-CoV-2 (−)) | − (a relative activity of <10% indicates absence of SARS-CoV-2 (−)) | + (A relative activity of >10% indicates the presence of SARS-CoV-2 (+)) | + (A relative activity of >10% indicates the presence of SARS-CoV-2 (+)) |  |
| Cy7-Ahx-[PEG1]VLQS[PEG1]K(QC1)-CONH2 [Peptide 1] |  | between Q-S | 3.5 |  | 7 | 8.5 | − | − (key: A relative activity of >10% indicates the presence of SARS-CoV-2 (+); a relative activity of <10% indicates absence of SARS-CoV-2 (−)) | − (a relative activity of <10% indicates absence of SARS-CoV-2 (−)) | − (a relative activity of <10% indicates absence of SARS-CoV-2 (−)) | − (a relative activity of <10% indicates absence of SARS-CoV-2 (−)) | + (A relative activity of >10% indicates the presence of SARS-CoV-2 (+)) | + (A relative activity of >10% indicates the presence of SARS-CoV-2 (+)) |  |
| Ex 1.1: fluorescently quenched peptide (TVRLQSGF) with fluorescent agent, non-fluorescent agent and cleavage site specific for a Coronavirus (also: fluorophore and quencher, sites not given here) |  |  |  |  |  |  |  |  |  |  |  |  |  | An increase in RFU is detected |
